In patent US8178506B2, “Oligomeric compounds and compositions for use in modulation of small non-coding RNAs” (Regulus Therapeutics Inc., priority 2003, dated 2012):
In the oligonucleotide strings, read from the 5' end, every base follows the letter of its sugar. An asterisk marks phosphorothioate; unmarked linkages are phosphodiester. Other units and linkages are bracketed, terminal groups are in braces. A string of capitals states the bases alone. e = 2'-O-(2-methoxyethyl) (MOE); [5mC] = 5-methylcytosine; d = 2'-deoxy (DNA)

How the values were obtained:
follistatin = test: Follistatin mRNA expression in HepG2 cells; format: cell-based, human; conditions: for Follistatin mRNA: four hours, UTC = 100; for Follistatin mRNA expression: Experiment 2, insulin treated: HepG2 cells transfected with oligomeric compound, 1 nM insulin for four hours, UTC + 1 nM insulin = 100
IGFBP-1 = IGFBP-1 mRNA expression in HepG2 cells; format: cell-based, human; conditions: for IGFBP1 mRNA: four hours, UTC = 100; for IGFBP1 mRNA expression: Experiment 2, insulin treated: HepG2 cells transfected with oligomeric compound, 1 nM insulin for four hours, UTC + 1 nM insulin = 100
[1] = HepG2 cells, Experiment 1, basal (no insulin)
[2] = Experiment 1, basal (no insulin), HepG2, 100 nM oligomeric compound
[3] = Experiment 2, 1 nM insulin treated, HepG2, 100 nM oligomeric compound
[4] = Experiment 3, basal (no insulin), HepG2 cells, 48 hours post-transfection
[5] = Experiment 4, insulin-sensitization: HepG2 cells treated with 1 nM insulin for four hours, 48 h post-transfection, mRNA by real-time PCR

Substance: 327895 (antisense eA*e[5mC]*eA*eA*eA*e[5mC]*eA*e[5mC]*e[5mC]*eA*eT*eT*eG*eT*e[5mC]*eA*e[5mC]*eA*e[5mC]*eT*e[5mC]*e[5mC]*eA) [compound 327895]
- Follistatin mRNA (follistatin; [1]): 83
- IGFBP1 mRNA (IGFBP-1; [1]): 108

Substance: 341800 (antisense AAGCCCAAAAGGAGAAUUCUUUG; all 2'-MOE, all phosphorothioate, methylation of C and T or U not given here) [compound 341800]
- Follistatin mRNA (follistatin; [1]): 105
- IGFBP1 mRNA (IGFBP-1; [1]): 114

Substance: 340927 (antisense eT*eG*eA*eG*e[5mC]*dT*dA*d[5mC]*dA*dG*dT*dG*d[5mC]*dT*dT*e[5mC]*eA*eT*e[5mC]*eT*e[5mC]*eA) [compound 340927]
- Follistatin (% UTC) (follistatin; [2]): 111 % UTC
- Follistatin (% UTC) (follistatin; [3]): 128 % UTC
- IGFBP-1 (% UTC) (IGFBP-1; [2]): 201 % UTC
- IGFBP-1 (% UTC) (IGFBP-1; [3]): 285 % UTC

Substance: 327886 (antisense e[5mC]*eG*e[5mC]*eG*eT*eA*e[5mC]*e[5mC]*eA*eA*eA*eA*eG*eT*eA*eA*eT*eA*eA*eT*eG) [compound 327886]
- Follistatin mRNA (follistatin; [1]): 82
- IGFBP1 mRNA (IGFBP-1; [1]): 176

Substance: 327916 (antisense eT*eG*eG*e[5mC]*eA*eT*eT*e[5mC]*eA*e[5mC]*e[5mC]*eG*e[5mC]*eG*eT*eG*e[5mC]*e[5mC]*eT*eT*eA*eA) [compound 327916]
- Follistatin mRNA expression (follistatin): 98
- Follistatin mRNA (follistatin; [1]): 108
- IGFBP1 mRNA expression (IGFBP-1): 128
- IGFBP1 mRNA (IGFBP-1; [1]): 102

Substance: 341806 (antisense GCCAATATTTCTGTGCTGCTA; all 2'-MOE, all phosphorothioate, methylation of C not given here) [compound 341806]
- Follistatin mRNA (follistatin; [1]): 75
- IGFBP1 mRNA (IGFBP-1; [1]): 128

Substance: 338664 (antisense e[5mC]*eA*eG*eA*e[5mC]*eT*e[5mC]*e[5mC]*e[5mC]*eA*eA*e[5mC]*eT*eG*eA*e[5mC]*e[5mC]*eA*eG*eA) [compound 338664]
- Follistatin (% UTC) (follistatin; [2]): 93 % UTC
- Follistatin (% UTC) (follistatin; [3]): 84 % UTC
- IGFBP-1 (% UTC) (IGFBP-1; [2]): 90 % UTC
- IGFBP-1 (% UTC) (IGFBP-1; [3]): 100 % UTC

Substance: 327887 (antisense eG*e[5mC]*eG*eA*e[5mC]*e[5mC]*eA*eT*eG*eG*e[5mC]*eT*eG*eT*eA*eG*eA*e[5mC]*eT*eG*eT*eT*eA) [compound 327887]
- Follistatin mRNA (follistatin; [1]): 113
- IGFBP1 mRNA (IGFBP-1; [1]): 119

Substance: 341803 (antisense CCACACACTTCCTTACATTCCA; all 2'-MOE, all phosphorothioate, methylation of C not given here) [compound 341803]
- Follistatin mRNA (follistatin; [1]): 68
- IGFBP1 mRNA (IGFBP-1; [1]): 107

Substance: 327913 (antisense eA*eA*e[5mC]*e[5mC]*eG*eA*eT*eT*eT*e[5mC]*eA*eA*eA*eT*eG*eG*eT*eG*e[5mC]*eT*eA*eG) [compound 327913]
- Follistatin (% UTC) (follistatin; [2]): 115 % UTC
- Follistatin (% UTC) (follistatin; [3]): 123 % UTC
- IGFBP-1 (% UTC) (IGFBP-1; [2]): 123 % UTC
- IGFBP-1 (% UTC) (IGFBP-1; [3]): 147 % UTC

Substance: 327954 (antisense eA*e[5mC]*eA*eA*eA*eG*eT*eT*e[5mC]*eT*eG*eT*eG*eA*eT*eG*e[5mC]*eA*e[5mC]*eT*eG*eA) [compound 327954]
- Follistatin (% UTC) (follistatin; [2]): 100 % UTC
- Follistatin (% UTC) (follistatin; [3]): 105 % UTC
- IGFBP-1 (% UTC) (IGFBP-1; [2]): 118 % UTC
- IGFBP-1 (% UTC) (IGFBP-1; [3]): 120 % UTC

Substance: 328115 (antisense eA*eG*eA*eA*eG*eG*eT*eG*eG*eG*eG*eA*eG*e[5mC]*eA*eG*e[5mC]*eG*eT*e[5mC]*eA) [compound 328115]
- Follistatin mRNA expression (follistatin): 91
- IGFBP1 mRNA expression (IGFBP-1): 120

Substance: 341804 (antisense ATCTGCACTGTCAGCACTTT; all 2'-MOE, all phosphorothioate, methylation of C not given here) [compound 341804]
- Follistatin mRNA (follistatin; [1]): 63
- IGFBP1 mRNA (IGFBP-1; [1]): 162

Substance: 328677 (eT*e[5mC]*e[5mC]*eT*eG*dG*dA*dT*dG*dA*dT*dA*dT*d[5mC]*dT*eA*e[5mC]*e[5mC]*eT*e[5mC]; antisense) [compound 328677]
- Follistatin (% UTC) (follistatin; [4]): 130 % UTC
- Follistatin (% UTC) (follistatin; [5]): 118 % UTC
- IGFBP-1 (% UTC) (IGFBP-1; [4]): 208 % UTC
- IGFBP-1 (% UTC) (IGFBP-1; [5]): 159 % UTC

Substance: 327897 (antisense eA*e[5mC]*eA*eG*eG*e[5mC]*e[5mC]*eG*eG*eG*eA*e[5mC]*eA*eA*eG*eT*eG*e[5mC]*eA*eA*eT*eA) [compound 327897]
- Follistatin mRNA expression (follistatin): 123
- Follistatin mRNA (follistatin; [1]): 129
- IGFBP1 mRNA expression (IGFBP-1): 243
- IGFBP1 mRNA (IGFBP-1; [1]): 163

Substance: 341807 (antisense CTGGGACTTTGTAGGCCAGTT; all 2'-MOE, all phosphorothioate, methylation of C not given here) [compound 341807]
- Follistatin mRNA (follistatin; [1]): 102
- IGFBP1 mRNA (IGFBP-1; [1]): 129

Substance: 327880 (antisense eA*e[5mC]*eA*eA*eA*eT*eT*e[5mC]*eG*eG*eT*eT*e[5mC]*eT*eA*e[5mC]*eA*eG*eG*eG*eT*eA) [compound 327880]
- Follistatin (% UTC) (follistatin; [2]): 107 % UTC
- Follistatin (% UTC) (follistatin; [3]): 149 % UTC
- IGFBP-1 (% UTC) (IGFBP-1; [2]): 137 % UTC
- IGFBP-1 (% UTC) (IGFBP-1; [3]): 136 % UTC
